Reference: paper PMC3926237, “Identification of Levothyroxine Antichagasic Activity through Computer-Aided Drug Repurposing” (The Scientific World Journal, 2014)

Biological target: cruzipain (Cz) (Trypanosoma cruzi, UniProt P25779)
Assay: chromogenic Bz-Pro-Phe-Arg-pNA protease assay on partially purified native cruzipain, […] nm
Type: biochemical

Sequence of cruzipain (Cz) (P25779 123-467): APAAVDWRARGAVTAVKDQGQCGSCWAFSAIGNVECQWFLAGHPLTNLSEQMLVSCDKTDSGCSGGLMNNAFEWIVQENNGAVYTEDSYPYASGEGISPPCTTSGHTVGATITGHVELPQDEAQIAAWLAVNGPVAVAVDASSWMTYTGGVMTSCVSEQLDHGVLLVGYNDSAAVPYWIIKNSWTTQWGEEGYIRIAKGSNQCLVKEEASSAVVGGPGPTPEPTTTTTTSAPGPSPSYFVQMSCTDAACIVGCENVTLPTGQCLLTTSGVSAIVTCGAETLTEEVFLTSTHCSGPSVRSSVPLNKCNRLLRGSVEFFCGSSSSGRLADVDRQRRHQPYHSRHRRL

In the case of N[C@@H](Cc1cc(I)c(Oc2cc(I)c(O)c(I)c2)c(I)c1)C(=O)O [levothyroxine], the IC50 is reported as 38.4 ± 6.82 µM.
